Results on one substance are retold here after US20090028795A1, “NOD1 as an Anti-Tumor Agent” (priority 2005, published 2009).

Holding throughout (assay type): cell-based, human
For assay [1], the system named is MCF-7 cells. Kind of assay: Propidium iodide exclusion cell death assay, wild-type (parental/Blasto) MCF-7 cells. As to conditions: for cell death / apoptosis: wild type cells, agent alone. As to the method:
(§1) Cell viability assays. Propidium iodide exclusion assay: Cells were stimulated as indicated for 2 days. Subsequently, cells were harvested, washed twice in FACS buffer (PBS containing 1% FCS and 0.1% NaN3) and resuspended in propidium iodide (PI)-containing FACS buffer (4 ug/ml). The extent of cell death was analyzed with a FACSCalibur flow cytometer (Becton Dickinson, Mountain View, Calif.). DAPI staining: MCF-7 cells were plated in chamber slides, and stimulated for 2 days. Cells were washed with PBS and apoptotic nuclei were stained with 1 μg/ml DAPI (Sigma Chemical Co., St. Louis, Mo.). Cells were fixed in 4% paraformaldehyde and examined by fluorescence microscopy.
To further investigate the role of Nod1 in apoptosis, a variety of cell types were incubated with the Nod1 ligand, […] (γTriDAP), which specifically activates Nod1. The cell types tested included the parental MCF-7 cell line, the Nod1-deficient MCF-7C20 clone, and a cell line engineered to contain an additional human Nod1 allele (MCF-7Nod1) so that Nod1 was over-expressed. To determine whether the resistance of C20 cells to γTriDAP-induced apoptosis resulted from the absence of Nod1, human Nod1 was stably expressed in MCF-7 C20 cells to produce Nod1-sufficient C20 cells (C20/Nod1). As another control, the parental MCF-7 cell line was transfected with an empty retroviral vector to generate MCF-7 Blasto cells. Cells were treated with γTriDAP in the presence or absence of cycloheximide (CHX) and cell death was then determined by propidium iodide staining and flow cytometry.

For assay [2], the system named is 293. Briefly: IL-8 production, 293 cells stably expressing Nod1. As to conditions: 293, Nod1 stably expressed; treatment as labelled.
Assay [3] relates to CaCo2. Briefly: Apoptosis (PI staining), CaCo2 cells stably expressing Nod1. The following applies: CaCo2, Nod1 stably expressed; treatment as labelled. As for the experimental part:
as §1
To determine if Nod1-dependent apoptosis occurs in other human cell lines, a series of epithelial cell lines were examined where Nod1 was stably expressed to enhance sensitivity to activation of the Nod1 pathway. Cells were treated with TNFα (T) and γTriDAP (γ) in the presence or absence of CHX (C) and monitored for viability by PI staining as a measure of apoptosis (Table 1).

Assay [4] deals with MCF-7 Nod2 cells. Kind of assay: Apoptosis (PI, flow cytometry) in MCF-7 cells over-expressing Nod2. As to conditions: 20 ug/ml plus CHX, 48 h. As to the method:
In FIG. 5A, MCF-7 Blasto, MCF-7 Nod1 and MCF-7 Nod2 were treated with the NOD1 ligand γTriDAP or the Nod2 ligand muramyl dipeptide (MDP)(20 ug/ml each) in the presence or absence of CHX for 48 h. Cells were then incubated with PI and apoptotic cell death was measured by flow cytometry. […] In FIG. 5B, expression of NOD1 and NOD2 was confirmed by Western blot analysis using anti-Myc antibodies for detection of the recombinant proteins. […] MCF-7 Blasto, MCF-7 Nod1 and MCF-7 Nod2 cells were stimulated with γTriDAP or MDP in the presence or absence of CHX (0.5 ug/ml) for 24 h. Cell supernatants were then harvested and assayed for IL-8 secretion.
Cell viability assays. Propidium iodide exclusion assay: Cells were stimulated as indicated for 2 days. […] The extent of cell death was analyzed with a FACSCalibur flow cytometer (Becton Dickinson, Mountain View, Calif.). […] Cells were fixed in 4% paraformaldehyde and examined by fluorescence microscopy.
Experiments were also performed to ascertain whether activation of Nod2 by its specific activator, muramyl dipeptide (MDP), would initiate apoptosis in parental MCF-7 cells or in MCF-7 cells over-expressing Nod2 (MCF-7 Nod2). Thus, γTriDAP or MDP were added to each of these lines and apoptosis (FIG. 5A) and IL-8 production (FIG. 5C) were measured. […]
(In general: In flow cytometry, cells or beads pass a laser one at a time.)

The test system of assay [5] is CaCo2. Kind of assay: IL-8 production, CaCo2 cells stably expressing Nod1. As to conditions: CaCo2, Nod1 stably expressed; treatment as labelled.
Assay [6] concerns HT29. Briefly: IL-8 production, HT29 cells stably expressing Nod1. The following applies: HT29, Nod1 stably expressed; treatment as labelled.
Assay [7] relates to JNK. Kind of assay: JNK phosphorylation in MCF-7 RIP2 transfectants. The text has this: FIG. 7A-C illustrate that both wild-type RIP2 and a kinase-deficient (KD) mutant of RIP2 are functional in the NOD1 apoptosis pathway. However, RIP2 lacking the CARD domain acts as a dominant negative inhibitor of NOD1 signaling. FIG. 7A graphically illustrates the percentage of cells that were apoptotic in populations of wild type RIP2, RIP2 KD and RIP2 ΔCARD cells. MCF-7 cells were stably transfected with wild type Myc-RIP2, Myc-RIP2 KD, and Myc-RIP2 ΔCARD and were left untreated or were treated with γTriDAP in the presence or absence of CHX (3 ug/ml) for 48 h. Cells were incubated with PI and apoptotic cell death was measured by flow cytometry. […] FIG. 7C illustrates γTriDAP-induction of phosphorylation of JNK in RIP2 wild types, MCF-7 RIP2 KD, and RIP2 ΔCARD cells.
The effect of RIP2 expression on γTriDAP-induced JNK phosphorylation was also examined (FIG. 7C).

Non-standard residues stand in square brackets, D forms with d. No end group written: not given here. DAP = diaminopimelic acid

Consider “D-Ala-L-Glu-Diaminopimelic acid ([dA]-Glu-[DAP]; also: Glu joined to DAP through its gamma carboxyl (γTriDAP))”, for which the “cell death / apoptosis” value in assay [1] was “No cell death”; in assay [1] (listed as 7-TriDAP) it was “did not induce apoptosis”. Besides, the cell death entry in assay [1] (wild-type MCF-7, γTriDAP 50 ug/ml in the presence of cycloheximide 3 ug/ml, 48 h) was “about 25%”. For the same substance, the “IL−8 Production” value in assay [2] is “do release IL-8”; in assay [5], “poorly responsive”; in assay [6] it was “poorly responsive”. For the same substance, the values for the apoptosis entry in assay [3] and in assay [4] were “poorly responsive” and “produced cell death”, respectively. The “phosphorylation of JNK” value in assay [7] (MCF-7 expressing wild type RIP2 or RIP2 KD, in the presence of cycloheximide, 2 h) is given as “induced phosphorylation of JNK”; in assay [7] (RIP2ΔCARD cells, with cycloheximide), “no such effect”.
